Data: US12528788B2, “Pesticidally active benzene- and azine-amide compounds” (SYNGENTA CROP PROTECTION AG, priority 2018, dated 2026)

What was measured:
Assay type in all cases: in vivo
Thrips tabaci = assay: Example B12: Thrips tabaci (onion thrips) feeding/contact activity; settings: foliar, 144 h, application rate of 200 ppm, 6 days after infestation, sunflower leaf discs
Description: Example B12: Thrips tabaci (Onion Thrips) Feeding/Contact Activity
Sunflower leaf discs were placed on agar in 24-well microtiter plates and sprayed with aqueous test solutions prepared from 10′000 ppm DMSO stock solutions. After drying the leaf discs were infested with a Thrips population of mixed ages. The samples were assessed for mortality 6 days after infestation.

Plutella xylostella [1] = assay: Example B14: Plutella xylostella (diamondback moth), 96-well artificial diet; settings: 216 h, application rate of 500 ppm, 9 days after infestation
Description: Example B14: Plutella xylostella (Diamondback Moth)
96-well microtiter plates containing artificial diet were treated with aqueous test solutions, prepared from 10′000 ppm DMSO stock solutions, by a liquid handling robot. After drying, eggs (˜30 per well) were infested onto a netted lid which was suspended above the diet. The eggs hatch and L1 larvae move down to the diet. The samples were assessed for mortality 9 days after infestation.

Euschistus heros = assay: Example B2: Euschistus heros (neotropical brown stink bug), soybean leaves sprayed, N2 nymphs; settings: 120 h, application rate of 200 ppm, 5 days after infestation, N2 nymphs on soybean leaves, read-out: control in at least one of the two categories (mortality or growth inhibition)
Description: Example B2: Euschistus heros (Neotropical Brown Stink Bug)
Soybean leaves on agar in 24-well microtiter plates were sprayed with aqueous test solutions prepared from 10′000 ppm DMSO stock solutions. After drying the leaves were infested with N2 nymphs. The samples were assessed for mortality and growth inhibition in comparison to untreated samples 5 days after infestation.

Spodoptera littoralis [2] = assay: Example B9: Spodoptera littoralis (Egyptian cotton leaf worm), cotton leaf discs sprayed, L1 larvae; settings: foliar, 72 h, application rate of 200 ppm, 3 days after infestation, read-out: control in at least one of the three categories (mortality, anti-feedant effect or growth inhibition)
Chilo suppressalis = assay: Example B4: Chilo suppressalis (striped rice stemborer), artificial diet, L2 larvae; settings: 144 h, application rate of 200 ppm, 6 days after infestation, read-out: control in at least one of the three categories (mortality, anti-feedant effect or growth inhibition)
Description: Example B4: Chilo suppressalis (Striped Rice Stemborer)
24-well microtiter plates with artificial diet were treated with aqueous test solutions prepared from 10′000 ppm DMSO stock solutions by pipetting. After drying, the plates were infested with L2 larvae (6-8 per well). The samples were assessed for mortality, anti-feeding effect, and growth inhibition in comparison to untreated samples 6 days after infestation. Control of Chilo suppressalis by a test sample is given when at least one of the categories mortality, anti-feedant effect, and growth inhibition is higher than the untreated sample.

Myzus persicae [3] = assay: Example B8: Myzus persicae (green peach aphid) intrinsic activity; settings: 120 h, test rate of 12 ppm, 5 days after infestation, sucrose solution
Text: Example B8: Myzus persicae (Green Peach Aphid). Intrinsic Activity
Test compounds prepared from 10′000 ppm DMSO stock solutions were applied by pipette into 24-well microtiter plates and mixed with sucrose solution. The plates were closed with a stretched Parafilm. A plastic stencil with 24 holes was placed onto the plate and infested pea seedlings were placed directly on the Parafilm. The infested plate was closed with a gel blotting paper and another plastic stencil and then turned upside down. The samples were assessed for mortality 5 days after infestation.

Plutella xylostella [4] = assay: Example B5: Plutella xylostella (diamond back moth), artificial diet, 24-well, eggs; settings: 192 h, application rate of 200 ppm, 8 days after infestation, read-out: control in at least one of the two categories (mortality or growth inhibition)
Description: Example B5: Plutella xylostella (Diamond Back Moth)
24-well microtiter plates with artificial diet were treated with aqueous test solutions prepared from 10′000 ppm DMSO stock solutions by pipetting. After drying, Plutella eggs were pipetted through a plastic stencil onto a gel blotting paper and the plate was closed with it. The samples were assessed for mortality and growth inhibition in comparison to untreated samples 8 days after infestation.

Diabrotica balteata = assay: Example B1: Diabrotica balteata (corn root worm), maize sprouts sprayed, L2 larvae; settings: 96 h, application rate of 200 ppm, 4 days after infestation, L2 larvae on maize sprouts, read-out: control in at least one of the two categories (mortality or growth inhibition)
Description: Example B1: Diabrotica balteata (Corn Root Worm)
Maize sprouts placed onto an agar layer in 24-well microtiter plates were treated with aqueous test solutions prepared from 10′000 ppm DMSO stock solutions by spraying. After drying, the plates were infested with L2 larvae (6 to 10 per well). The samples were assessed for mortality and growth inhibition in comparison to untreated samples 4 days after infestation.

Myzus persicae [5] = assay: Example B13: Myzus persicae (green peach aphid), 96-well sucrose solution; settings: 120 h, application rate of 50 ppm, 5 days after infestation
Text: Example B13: Myzus persicae (Green Peach Aphid)
Test compounds prepared from 10′000 ppm DMSO stock solutions were applied by a liquid handling robot into 96-well microtiter plates and mixed with a sucrose solution. Parafilm was stretched over the 96-well microtiter plate and a plastic stencil with 96 holes was placed onto the plate. Aphids were sieved into the wells directly onto the Parafilm. The infested plates were closed with a gel blotting card and a second plastic stencil and then turned upside down. The samples were assessed for mortality 5 days after infestation.

[6] = system: Frankliniella occidentalis; assay: Example B3: Frankliniella occidentalis (western flower thrips) feeding/contact activity; settings: foliar, 168 h, application rate of 200 ppm, 7 days after infestation, sunflower leaf discs, mixed ages
Description: Example B3: Frankliniella occidentalis (Western Flower Thrips) Feeding/Contact Activity
Sunflower leaf discs were placed on agar in 24-well microtiter plates and sprayed with aqueous test solutions prepared from […] stock solutions. After drying the leaf discs were infested with a Frankliniella population of mixed ages. The samples were assessed for mortality 7 days after infestation.

Myzus persicae [7] = assay: Example B7: Myzus persicae (green peach aphid) systemic activity; settings: 144 h, test rate of 24 ppm, 6 days after placing seedlings into test solutions, pea seedlings
Description: Example B7: Myzus persicae (Green Peach Aphid) Systemic Activity
Roots of pea seedlings infested with an aphid population of mixed ages were placed directly into aqueous test solutions prepared from 10′000 DMSO stock solutions. The samples were assessed for mortality 6 days after placing seedlings into test solutions.

Myzus persicae [8] = assay: Example B6: Myzus persicae (green peach aphid) feeding/contact activity; settings: foliar, 144 h, application rate of 200 ppm, 6 days after infestation, sunflower leaf discs
Description: Example B6: Myzus persicae (Green Peach Aphid) Feeding/Contact Activity
Sunflower leaf discs were placed onto agar in a 24-well microtiter plate and sprayed with aqueous test solutions prepared from 10′000 ppm DMSO stock solutions. After drying, the leaf discs were infested with an aphid population of mixed ages. The samples were assessed for mortality 6 days after infestation.

Tetranychus urticae = assay: Example B11: Tetranychus urticae (two-spotted spider mite) feeding/contact activity; settings: foliar, 192 h, application rate of 200 ppm, 8 days after infestation, bean leaf discs, mixed population (mobile stages)
Description: Example B11: Tetranychus urticae (Two-Spotted Spider Mite): Feeding/Contact Activity
Bean leaf discs on agar in 24-well microtiter plates were sprayed with aqueous test solutions prepared from 10′000 ppm DMSO stock solutions. After drying the leaf discs were infested with a mite population of mixed ages. The samples were assessed for mortality on mixed population (mobile stages) 8 days after infestation.

Spodoptera littoralis [9] = assay: Example B10: Spodoptera littoralis (Egyptian cotton leaf worm), uptake by lettuce roots from agar; settings: 144 h, test rate of 12.5 ppm, 6 days after infestation, lettuce grown on treated agar, read-out: control in at least one of the three categories (mortality, anti-feeding, or growth inhibition)
Text: Example B10: Spodoptera littoralis (Egyptian Cotton Leaf Worm)
Test compounds were applied by pipette from 10′000 ppm DMSO stock solutions into 24-well plates and mixed with agar. Lettuce seeds were placed onto the agar and the multi well plate was closed by another plate which contained also agar. After 7 days the compound was absorbed by the roots and the lettuce grew into the lid plate. The lettuce leaves were then cut off into the lid plate. Spodoptera eggs were pipetted through a plastic stencil onto a humid gel blotting paper and the lid plate was closed with it. The samples were assessed for mortality, anti-feedant effect and growth inhibition in comparison to untreated samples 6 days after infestation.

CC(c1nccnc1-c1ncccn1)N(CC1CC1)C(=O)c1cc(C(F)(F)F)cc(C(F)(F)F)c1 (stereo not shown) [Compound P5, N-(cyclopropylmethyl)-N-[1-(3-pyrimidin-2-ylpyrazin-2-yl)ethyl]-3,5-bis(trifluoromethyl)benzamide]
≥ 80%: mortality at 200 ppm (Thrips tabaci) | mortality at 500 ppm (Plutella xylostella [1]) | percent control (mortality or growth inhibition) at 200 ppm (Euschistus heros) | percent control (mortality, anti-feedant effect or growth inhibition) at 200 ppm (Spodoptera littoralis [2]) | percent control (mortality, anti-feedant effect or growth inhibition) at 200 ppm (Chilo suppressalis) | mortality at 12 ppm (Myzus persicae [3]) | percent control (mortality or growth inhibition) at 200 ppm (Plutella xylostella [4]) | percent control (mortality or growth inhibition) at 200 ppm (Diabrotica balteata) | mortality at 50 ppm (Myzus persicae [5])

CC(NC(=O)c1cc(SC(F)(F)F)cc(C(F)(F)F)c1)c1nccnc1-c1ncccn1 (stereo not shown) [Compound P19, N-[1-(3-pyrimidin-2-ylpyrazin-2-yl)ethyl]-3-(trifluoromethyl)-5-(trifluoromethylsulfanyl)benzamide]
≥ 80%: mortality at 500 ppm (Plutella xylostella [1]) | percent control (mortality, anti-feedant effect or growth inhibition) at 200 ppm (Spodoptera littoralis [2]) | mortality at 200 ppm [6] | percent control (mortality, anti-feedant effect or growth inhibition) at 200 ppm (Chilo suppressalis) | mortality at 12 ppm (Myzus persicae [3]) | percent control (mortality or growth inhibition) at 200 ppm (Plutella xylostella [4]) | percent control (mortality or growth inhibition) at 200 ppm (Diabrotica balteata) | mortality at 50 ppm (Myzus persicae [5])

CC(NC(=O)c1cc(OC(F)F)cc(C(F)(F)F)c1)c1nccnc1-c1ncccn1 (stereo not shown) [Compound P23, 3-(difluoromethoxy)-N-[1-(3-pyrimidin-2-ylpyrazin-2-yl)ethyl]-5-(trifluoromethyl)benzamide]
≥ 80%: mortality at 24 ppm (Myzus persicae [7]) | mortality at 200 ppm (Myzus persicae [8]) | mortality at 500 ppm (Plutella xylostella [1]) | mortality at 200 ppm (Tetranychus urticae) | percent control (mortality or growth inhibition) at 200 ppm (Euschistus heros) | percent control (mortality, anti-feedant effect or growth inhibition) at 200 ppm (Spodoptera littoralis [2]) | percent control (mortality, anti-feedant effect or growth inhibition) at 200 ppm (Chilo suppressalis) | mortality at 12 ppm (Myzus persicae [3]) | percent control (mortality or growth inhibition) at 200 ppm (Plutella xylostella [4]) | percent control (mortality, anti-feeding or growth inhibition) at 12.5 ppm (Spodoptera littoralis [9]) | percent control (mortality or growth inhibition) at 200 ppm (Diabrotica balteata) | mortality at 50 ppm (Myzus persicae [5])

CC(c1nccnc1-c1ncccn1)N(CC1CC1)C(=O)c1cc(OC(F)F)cc(C(F)(F)F)c1 (stereo not shown) [Compound P24, N-(cyclopropylmethyl)-3-(difluoromethoxy)-N-[1-(3-pyrimidin-2-ylpyrazin-2-yl)ethyl]-5-(trifluoromethyl)benzamide]
≥ 80%: mortality at 200 ppm (Myzus persicae [8]) | mortality at 200 ppm (Tetranychus urticae) | percent control (mortality, anti-feedant effect or growth inhibition) at 200 ppm (Spodoptera littoralis [2]) | percent control (mortality, anti-feedant effect or growth inhibition) at 200 ppm (Chilo suppressalis) | mortality at 12 ppm (Myzus persicae [3]) | percent control (mortality or growth inhibition) at 200 ppm (Plutella xylostella [4]) | percent control (mortality or growth inhibition) at 200 ppm (Diabrotica balteata) | mortality at 50 ppm (Myzus persicae [5])
